Values quoted from earlier work as cited in patent US20050255161A1, “Method for the long term stabilization of labile compounds at room temperature in pharmaceutical preparations containing water” (priority 2004, published 2005).
Like-named read-outs stand apart in the source and are kept apart here.

CCCCC[C@H](O)/C=C/[C@H]1[C@H](O)CC(=O)[C@@H]1CCCCCCC(=O)O [prostaglandin E1, (13E)-(15S)-11alpha, 15-dihydroxy-9-oxoprost-13-enoate]
solubility in aqueous systems (low acidic medium): ~10 μg's
solubility in aqueous systems (slightly alkaline medium): ~100 μg's
